Data on 3 molecules can be found in US20210236438A1, “COMPOUNDS AND METHODS FOR THE TREATMENT OF AUTISM SPECTRUM DISORDER AND OTHER NEUROLOGICAL OR PSYCHIATRIC DISORDERS” (Tufts Medical Center, Inc., priority 2018, published 2021).

Each structure is given as a SMILES string. Entries after “also recorded” stand apart in the source; their conditions may differ.

For data set [1] the following is noted: ip or oral administration; U.S. Pat. No. 3,995,061; cited from earlier work.
The test system of data set [2] is glucose transporter 1 (GLUT-1). The settings on record: Jeong et al. 2011; cited from earlier work.
The conditions of data set [3]: U.S. Pat. No. 3,995,061; cited from earlier work.
Data set [4] deals with vascular endothelial growth factor (VEGF). Particulars: Jeong et al. 2011; cited from earlier work.
The test system of data set [5] is hnRNP L. Particulars: Kang et al. 2006, cited from earlier work.
Data set [6] deals with BIN1. Particulars: human osteosarcoma cells (U2OS), proteome analysis, Kang et al. 2006; cited from earlier work.
Data set [7] has as its system GADPH. The data set can be described thus: Western blot of control protein level in ascochlorin-treated rat embryonic cortical neurons. It is filed as cell-based. An excerpt: (§1) Compounds that modify hnRNP L levels therefore hold promise as lead structures for the development of ASD/mental retardation/neurological disorders.
Data set [8] relates to hnRNP L. Nature of the data set: Western blot of hnRNP L level in ascochlorin-treated cultured rat primary cortical neurons. It is filed as cell-based. The settings on record: rat embryonic/primary cortical neurons, hnRNP L 60 KDa.
From the text: as §1

In the case of `CCOc1c(Cl)c(C)c(C=O)c(O)c1C/C=C(C)/C=C/C1(C)C(C)CCC(=O)C1C` (stereo not shown) [4-O-ethyl-ascochlorin], in data set [1], the “toxicity as assessed by LD50” value is “low toxicity”.
On to `COc1c(Cl)c(C)c(C=O)c(O)c1C/C=C(C)/C=C/[C@@]1(C)[C@H](C)CCC(=O)[C@@H]1C` [MAC, 4-O-methylascochlorin], for which the “expression of GLUT-1” value in data set [2] is “increases the expression”. The “tolerability in clinical trials” value in data set [3] is on record as “well tolerated”. The “toxicity as assessed by LD50” value in data set [1] is reported as “low toxicity”. Also, the “expression of VEGF” value in data set [4] is listed as “increases the expression”.
In the case of `CC(/C=C/[C@@]1(C)[C@H](C)CCC(=O)[C@@H]1C)=C\Cc1c(O)c(Cl)c(C)c(C=O)c1O` [ascochlorin], the “hnRNP L protein levels in vitro (in words)” value in data set [5] (U2OS osteosarcoma cells) is “increase hnRNP L protein levels in vitro”. In addition, in data set [5] (human osteosarcoma cells (U2OS), proteome analysis), the “increase in hnRNP L protein level” value is 12 ×. Also, the “increase in BIN1 protein level” value in data set [6] is 10 ×. Besides, the “level of the control protein (GADPH 40 KDa)” value in data set [7] was “does not affect the level of the control protein”. Besides, the “level of hnRNP L” value in data set [8] is reported as “increases the level of hnRNP L; also recorded: increase hnRNP L levels in neurons; also recorded: increased levels of hnRNP L”.
